The test concerns the target Proto-oncogene Wnt-3 (Homo sapiens, UniProt P56703). Nature of the test: Inhibition of Wnt3 expressed in mouse L-cells assessed as inhibition of Wnt/catanin signaling pathway by luciferase reporter gene assay.

SMILES strings stand for the structures. Some results are limits rather than exact numbers.

Sequence of Proto-oncogene Wnt-3 (P56703 whole entry): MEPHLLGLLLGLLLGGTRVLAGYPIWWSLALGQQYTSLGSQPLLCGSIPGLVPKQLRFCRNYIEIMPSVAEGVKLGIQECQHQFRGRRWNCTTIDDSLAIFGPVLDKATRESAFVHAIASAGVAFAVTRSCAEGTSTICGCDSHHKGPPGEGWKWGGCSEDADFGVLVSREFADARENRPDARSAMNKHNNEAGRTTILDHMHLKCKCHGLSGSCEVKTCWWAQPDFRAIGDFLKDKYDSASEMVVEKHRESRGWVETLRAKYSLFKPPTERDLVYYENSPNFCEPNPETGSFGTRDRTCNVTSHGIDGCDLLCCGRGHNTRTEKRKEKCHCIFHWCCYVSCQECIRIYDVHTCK

For the molecule `O=C(Nc1ccccc1Br)c1ccc(-n2c(O)c3c(c2O)[C@H]2C=C[C@@H]3C2)cc1` [N-(2-Bromo-phenyl)-4-((1R,2S,6R,7S)-3,5-dioxo-4-aza-tricyclo[5.2.1.0*2,6*]dec-8-en-4-yl)-benzamide], the EC50 was more than 25 µM.

As for `O=C(Nc1ccccc1Cl)c1ccc(-n2c(O)c3c(c2O)[C@H]2C=C[C@@H]3C2)cc1` [N-(2-Chloro-phenyl)-4-((1R,2S,6R,7S)-3,5-dioxo-4-aza-tricyclo[5.2.1.0*2,6*]dec-8-en-4-yl)-benzamide], the EC50 is more than 25 µM.

As for `O=C(Nc1ccc(Br)c(Br)c1)c1ccc(-n2c(O)c3c(c2O)[C@H]2C=C[C@@H]3C2)cc1` [N-(3,4-Dibromo-phenyl)-4-((1R,2S,6R,7S)-dioxo-4-aza-tricyclo[5.2.1.0*2,6*]dec-8-en-4-yl)-benzamide], the EC50 was 10 µM.

In the case of `O=C(Nc1ccc(Cl)c(Cl)c1)c1ccc(-n2c(O)c3c(c2O)[C@H]2C=C[C@@H]3C2)cc1` [N-(3,4-Dichloro-phenyl)-4-((1R,2S,6R,7S)-dioxo-4-aza-tricyclo[5.2.1.0*2,6*]dec-8-en-4-yl)-benzamide], the EC50 turned out to be 5 µM.

Regarding `O=C(Nc1ccc(F)c(F)c1)c1ccc(-n2c(O)c3c(c2O)[C@H]2C=C[C@@H]3C2)cc1` [N-(3,4-Difluoro-phenyl)-4-((1R,2S,6R,7S)-dioxo-4-aza-tricyclo[5.2.1.0*2,6*]dec-8-en-4-yl)-benzamide], the EC50 stood at 3 µM.

Take `O=C(Nc1cc(F)cc(F)c1)c1ccc(-n2c(O)c3c(c2O)[C@H]2C=C[C@@H]3C2)cc1` [N-(3,5-Difluoro-phenyl)-4-((1R,2S,6R,7S)-dioxo-4-aza-tricyclo[5.2.1.0*2,6*]dec-8-en-4-yl)-benzamide]: the concentration giving a half-maximal response (EC50) was more than 25 µM.

Regarding `O=C(Nc1cccc(Br)c1)c1ccc(-n2c(O)c3c(c2O)[C@H]2C=C[C@@H]3C2)cc1` [N-(3-Bromo-phenyl)-4-((1R,2S,6R,7S)-3,5-dioxo-4-aza-tricyclo[5.2.1.0*2,6*]dec-8-en-4-yl)-benzamide], the EC50 amounted to 9 µM.

Take `O=C(Nc1cccc(Cl)c1)c1ccc(-n2c(O)c3c(c2O)[C@H]2C=C[C@@H]3C2)cc1` [N-(3-Chloro-phenyl)-4-((1R,2S,6R,7S)-3,5-dioxo-4-aza-tricyclo[5.2.1.0*2,6*]dec-8-en-4-yl)-benzamide]: the 50% effective concentration (EC50) is more than 25 µM.

Take `O=C(Nc1ccc(Br)cc1)c1ccc(-n2c(O)c3c(c2O)[C@H]2C=C[C@@H]3C2)cc1` [N-(4-Bromo-phenyl)-4-((1R,2S,6R,7S)-3,5-dioxo-4-aza-tricyclo[5.2.1.0*2,6*]dec-8-en-4-yl)-benzamide]: the EC50 came out at 1 µM.

With `O=C(Nc1ccc(Cl)cc1)c1ccc(-n2c(O)c3c(c2O)[C@H]2C=C[C@@H]3C2)cc1` [N-(4-Chloro-phenyl)-4-((1R,2S,6R,7S)-3,5-dioxo-4-aza-tricyclo[5.2.1.0*2,6*]dec-8-en-4-yl)-benzamide], the EC50 amounted to 3 µM.

Take `O=C(NCc1ccccc1)c1ccc(-n2c(O)c3c(c2O)[C@H]2C=C[C@@H]3C2)cc1` [N-Benzyl-4-((1R,2S,6R,7S)-3,5-dioxo-4-aza-tricyclo[5.2.1.0*2,6*]dec-8-en-4-yl)-benzamide]: the EC50 turned out to be 20 µM.

As to `O=C(NC1CCCCC1)c1ccc(-n2c(O)c3c(c2O)[C@H]2C=C[C@@H]3C2)cc1` [N-Cyclohexyl-4-((1R,2S,6R,7S)-3,5-dioxo-4-aza-tricyclo[5.2.1.0*2,6*]dec-8-en-4-yl)-benzamide], the EC50 is more than 25 µM.

For `CO[C@@H]1CCCC[C@H]1NC(=O)c1ccc(-n2c(O)c3c(c2O)[C@H]2C=C[C@@H]3C2)cc1` [trans-4-((1R,2S,6R,7S)-3,5-Dioxo-4-aza-tricyclo[5.2.1.0*2,6*]dec-8-en-4-yl)-N-(2-methoxy-cyclohexyl)-benzamide], the EC50 was 2 µM.

Regarding `O=C(N[C@H]1CCCC[C@@H]1O)c1ccc(-n2c(O)c3c(c2O)[C@H]2C=C[C@@H]3C2)cc1` [trans-4-((1R,2S,6R,7S)-3,5-Dioxo-4-aza-tricyclo[5.2.1.0*2,6*]dec-8-en-4-yl)-N-((2-hydroxy-cyclohexyl)-benzamide], the EC50 is more than 25 µM.

The EC50 is the midpoint of the concentration-response curve.

Values taken from BindingDB's records for doi:10.1016/j.bmcl.2009.04.040 (The University of Texas Southwestern Medical Center At …, 2009).
